One series concerns the target T1, human 5-HT1A receptors (Homo sapiens, UniProt P08908).
T1 construct: expressed in transfected cells; host or cells: HeLa cells (HA7), used as cell homogenate
T1 sequence (P08908 1-422): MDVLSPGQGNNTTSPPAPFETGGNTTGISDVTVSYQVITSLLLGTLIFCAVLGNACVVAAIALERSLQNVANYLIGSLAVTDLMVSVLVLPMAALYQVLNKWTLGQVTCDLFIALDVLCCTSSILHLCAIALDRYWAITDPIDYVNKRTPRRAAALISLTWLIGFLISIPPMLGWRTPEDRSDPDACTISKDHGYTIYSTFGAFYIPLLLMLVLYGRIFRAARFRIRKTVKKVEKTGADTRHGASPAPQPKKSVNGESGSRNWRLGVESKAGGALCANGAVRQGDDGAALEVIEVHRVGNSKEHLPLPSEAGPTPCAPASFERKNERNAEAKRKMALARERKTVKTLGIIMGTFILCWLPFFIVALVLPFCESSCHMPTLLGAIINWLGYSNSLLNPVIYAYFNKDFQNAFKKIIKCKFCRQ
Briefly: Inhibition of 3H-5-CT binding to human 5-HT1A receptors. The procedure: Inhibition of ^3H-5-CT Binding to Human 5-HT1A Receptors
Human 5-HT1A receptors (40 μg of cell homogenate) were incubated for 15 minutes at 37° C. in 50 mM Tris buffer at pH 7.7 in the presence of ^3H-5-CT. Non-specific binding was determined by including 10 μM of metergoline. The reaction was terminated by rapid filtration through Unifilter GF/B filters on a Tomtec Cell Harvester. Filters were counted in a Packard Top Counter.

The subject of series [1] is 3H-5-HT uptake into whole rat brain synaptosomes. In words: Inhibition of 3H-5-HT uptake into rat brain synaptosomes. It is filed as biochemical. The conditions noted are these: 3H-5-HT accumulation into whole rat brain synaptosomes, in vitro; read-out: Inhibition of serotonin reuptake IC50. The procedure: Inhibition of ^3H-5-HT Uptake Into Rat Brain Synaptosomes
Using this method the ability of drugs to inhibit the accumulation of ^3H-5-HT into whole rat brain synaptosomes is determined in vitro.

A further series deals with T2, cloned 5-HT1A receptors (Homo sapiens, UniProt P08908).
T2 construct: expressed in transfected cells; host or cells: HeLa cells (HA7)
T2 sequence (P08908 1-422): T1 sequence (P08908 1-422)
Briefly: Antagonism of 5-HT induced inhibition of forskolin induced cAMP accumulation. The class given is cell-based. The conditions noted are these: cloned 5-HT1A receptors in transfected HeLa cells (HA7). The procedure: The assay was performed as a modification of the method described by Pauwels, P. J et al, Biochem. Pharmacol. 1993, 45, 375.

Where [2] appears, read: cloned human 5-HT1A receptors expressed in transfected HeLa cells (HA7), cell homogenate, 15 minutes at 37° C., pH 7.7.
The mark [3] stands for this setting: read-out: Inhibition of 3H-5-CT binding IC50, cloned human 5-HT1A receptors expressed in transfected HeLa cells (HA7), cell homogenate, 15 minutes at 37° C., pH 7.7.

Counter-ions that a name gives are not always drawn. Like-named read-outs stand apart in the source and are kept apart here.

By IC50 is commonly meant the concentration at which inhibition is half-maximal. In general, melting point refers to the temperature, or range, at which the solid turns liquid. Consider `Clc1ccc2c(CCN3CC=C(c4cccc5c4OCCO5)CC3)c[nH]c2c1.O=C(O)C(=O)O` [Compound 1v, 3-[2-[4-(1,4-Benzodioxan-5-yl)-1,2,3,6-tetrahydropyridin-1-yl]ethyl]-6-chloro-1H-indole oxalate], for which the melting point lay within 240 to 247 °C. Also, at human 5-HT1A receptors, the IC50 worked out at 0.81 nM. In series [1], the concentration for half-maximal inhibition (IC50) was 0.85 nM. For the same compound, at cloned 5-HT1A receptors, half-maximal inhibition (IC50) was put at 3300 nM.

For `CC(=O)N1CC(CCN2CCN(c3cccc4c3OCCO4)CC2)c2ccccc21` (centres unmarked) [Compound 2b], the melting point fell in the range of 119 to 120 °C. The IC50 on human 5-HT1A receptors (setting [2]) was 13 nM. Moreover, in series [1], the IC50 amounted to 12 nM. The same compound registered a half-inhibitory concentration (IC50) at cloned 5-HT1A receptors of 250 nM.

`Clc1ccc2[nH]cc(CCN3CCN(c4cccc5c4OCC5)CC3)c2c1.O=C(O)C(=O)O` [Compound 1n, 5-Chloro-3-[2-[4-(2,3-dihydrobenzofuran-7-yl)piperazin-1-yl]ethyl]-1H-indole oxalate]: the melting point lay in the range of 134 to 138 °C. On human 5-HT1A receptors, this compound gave a 50% inhibitory concentration (IC50) of 8.2 nM. Besides, the IC50 in series [1] was 2.1 nM. This compound came in with an IC50 at cloned 5-HT1A receptors of 1900 nM.

The compound `Brc1ccc2[nH]cc(CCN3CCN(c4cccc5c4OCCO5)CC3)c2c1.O=C(O)C(=O)O` [Compound 1b, 3-[2-[4-(1,4-Benzodioxan-5-yl)piperazin-1-yl]ethyl]-5-bromo-1H-indole oxalate] yielded a melting point of 236 to 240 °C. This compound also had an IC50 on human 5-HT1A receptors of 7.2 nM. In addition, in series [1], the 50% inhibitory concentration (IC50) amounted to 2.8 nM. Besides, on cloned 5-HT1A receptors, the IC50 was 5000 nM.

Compound `Fc1ccc2[nH]cc(CCN3CCN(c4cccc5c4OCCO5)CC3)c2c1.O=C(O)C(=O)O` [Compound 1h, 3-[2-[4-(1,4-Benzodioxan-5-yl)piperazin-1-yl]ethyl]-5-fluoro-1H-indole oxalate] registered a melting point of 224 to 226 °C. This compound also gave an IC50 on human 5-HT1A receptors of 4.6 nM. Besides, the IC50 in series [1] was 1.7 nM. The compound also showed a concentration for half-maximal inhibition (IC50) against cloned 5-HT1A receptors of 280 nM.

As for `Clc1ccc2c(c1)NCC2CCN1CCN(c2cccc3c2OCCO3)CC1.O=C(O)C(=O)O` (centres unmarked) [Compound 4d, 3-[2-[4-(1,4-Benzodioxan-5-yl)piperazin-1-yl]ethyl]-6-chloro-2,3-dihydro-1H-indole oxalate], the melting point is 185 to 188 °C. The compound further had a concentration for half-maximal inhibition (IC50) at human 5-HT1A receptors (setting [2]) of 14 nM. The IC50 in series [1] worked out at 4.3 nM. For the same compound, on cloned 5-HT1A receptors, half-maximal inhibition (IC50) required 890 nM.

Compound `Clc1cccc2[nH]cc(CCN3CCN(c4cccc5c4OCCO5)CC3)c12.O=C(O)C(=O)O` [Compound 1e, 3-[2-[4-(1,4-Benzodioxan-5-yl)piperazin-1-yl]ethyl]-4-chloro-1H-indole oxalate] displayed a melting point of 210 to 218 °C. The compound further yielded a concentration for half-maximal inhibition (IC50) on human 5-HT1A receptors of 11 nM. The IC50 in series [1] came out at 0.25 nM. The same compound displayed an IC50 at cloned 5-HT1A receptors of 2400 nM.

Take `CC1(C)Cc2cccc(C3=CCN(CCc4c[nH]c5cc(Cl)ccc45)CC3)c2O1` [Compound 1g, 6-Chloro-3-[2-[4-(2,2,-dimethyl-2,3,-dihydrohydrobenzofuran-7-yl)-1,2,3,6-tetrahydro-1-pyridyl]ethyl]-1H-indole oxalate]: the 50% inhibitory concentration (IC50) on human 5-HT1A receptors worked out at 2.8 nM; in series [1] it was 3.8 nM; on cloned 5-HT1A receptors it was 1800 nM.

On to `CC1(C)CCc2cc(Cl)cc(N3CCN(CCc4c[nH]c5cc(Cl)ccc45)CC3)c2O1.O=C(O)/C=C/C(=O)O` [Compound 3d, 6-Chloro-3-[2-[4-(6-chloro-2,2-dimethyl-3,4-dihydro-2H-1-benzopyran-8-yl)piperazin-1yl]ethyl]-1H-indole fumarate], for which the melting point lay in the range of 224 to 225 °C. Also, the half-inhibitory concentration (IC50) on human 5-HT1A receptors is 21 nM. Also, in series [1], the IC50 worked out at 15 nM. The compound also came in with a half-maximal inhibitory concentration (IC50) against cloned 5-HT1A receptors of 2300 nM.

Turning to “3-[2-[4-(1,4-Benzodioxan-5-yl)Piperazin-1-yl]Ethyl]-6-Chloro-1H-Indole Hemifumarate [Compound 3a]”, the results for the IC50 (on human 5-HT1A receptors (setting [3]); in series [1]; against cloned 5-HT1A receptors) were 1.2 nM, 5.3 nM and 500 nM, respectively.

Turning to `Clc1ccc2[nH]cc(CCN3CCN(c4cccc5c4OCCO5)CC3)c2c1` [Compound 1a, 3-[2-[4-(1,4-Benzodioxan-5-yl)Piperazin-1-yl]Ethyl]-5-Chloro-1H-Indole Oxalate], the IC50 at human 5-HT1A receptors was 17 nM; in series [1], 5 nM; on cloned 5-HT1A receptors, 2900 nM.

Consider `c1cc2c(c(N3CCN(CCc4c[nH]c5ccccc45)CC3)c1)OCCO2` [Compound 2a, 3-[2-[4-(1,4-Benzodioxan-5-yl)Piperazin-1-yl]Ethyl]-1H-Indole Hemifumarate], for which the half-inhibitory concentration (IC50) came out at 2.9 nM at human 5-HT1A receptors (setting [3]), 3.5 nM in series [1] and 160 nM at cloned 5-HT1A receptors.

The values are drawn from patent US6727263B2, “Indole and 2,3-dihydroindole derivatives, their preparation and use” (H. Lundbeck A/S, priority 1997, dated 2004).
